Test results as given in patent US5698411A, “Method for determining activity of enzymes in metabolically active whole cells” (priority 1995, dated 1997).

Assays:
Assay type in all cases: cell-based, human
[1] = system: granulocytes; assay: peptidase activity in leukemia and non-leukemia patients, granulocytes (Table 6C); parameters: unit not given here
Source text: (§1) Artificial intelligence was used to analyze data of cellular enzyme functions, and determine normal and disease states. Peptidases were used to distinguish leukemia from non-leukemia (output pattern). For input patterns lymphocyte and granulocyte cell types were used with aminopeptidases, cathepsins and dipeptidylpeptidase enzyme activities. In this Example, illustrated in Tables 6A-6C, three normals and three leukemia patients were used as known output patterns for the neural network to learn (in practice, the larger the learning set the more accurate unknown prediction will be). Unknowns were then presented to the learned algorithm as shown in the test case examples. Clinical diagnosis was confirmed by physicians. The trained neural network was able to correctly classify the leukemia from the non-leukemia.

[2] = system: lymphocytes; assay: peptidase activity in leukemia and non-leukemia patients, lymphocytes (Table 6C); parameters: unit not given here
Source text: as §1

[3] = system: lymphocytes; assay: aberrant enzyme activities in febrile children, lymphocytes (Table 7)
[4] = system: granulocytes; assay: aberrant enzyme activities in febrile children, granulocytes (Table 7)
[5] = system: monocytes; assay: aberrant enzyme activities in febrile children, monocytes (Table 7)

**Q.** For `NCC(=O)N1CCC[C@H]1C(=O)Nc1ccc2c(c1)Oc1cc(NC(=O)[C@@H]3CCCN3C(=O)CN)ccc1C21OC(=O)c2ccccc21` [GP, (H-Gly--Pro)2 Rho .2TFA], which “enzyme activity, Grans” value ([1]; J4 11/21/91 acute leuk.) is on record?
**A.** 10.75

**Q.** And the “enzyme activity, Grans” value ([1]; J4 12/2/91 A L)?
**A.** 11.08

**Q.** And the “enzyme activity, Grans” value ([1]; J4 12/3/91 acute leuk.)?
**A.** 1.28

**Q.** And the “enzyme activity, Grans” value ([1]; J5 11/27/91 A M L)?
**A.** 8.95

**Q.** What about the “enzyme activity, Grans” value ([1]; J19 11/27/91 C L L) of the same compound?
**A.** 1.39

**Q.** And the “enzyme activity, Grans” value ([1]; J22 12/2/91 A M L)?
**A.** 13.98

**Q.** What about the “enzyme activity, Grans” value ([1]; J22 12/9/91 A M L) of the same compound?
**A.** 11.52

**Q.** What about the “enzyme activity, Grans” value ([1]; N191 normal) of the same compound?
**A.** 11.20

**Q.** And the “enzyme activity, Grans” value ([1]; N192 normal)?
**A.** 11.22

**Q.** What about the “enzyme activity, Grans” value ([1]; N193 normal) of the same compound?
**A.** 8.87

**Q.** What about the “enzyme activity, Grans” value ([1]; N194 normal) of the same compound?
**A.** 12.49

**Q.** What about the “enzyme activity, Grans” value ([1]; N195 normal) of the same compound?
**A.** 13.31

**Q.** What about the “enzyme activity, Grans” value ([1]; N197 normal) of the same compound?
**A.** 15.85

**Q.** What about the “enzyme activity, Grans” value ([1]; N199 normal) of the same compound?
**A.** 13.41

**Q.** What about the “enzyme activity, Grans” value ([1]; N200 normal) of the same compound?
**A.** 12.74

**Q.** What about the “enzyme activity, Grans” value ([1]; N201 normal) of the same compound?
**A.** 15.92

**Q.** What about the “enzyme activity, Grans” value ([1]; N202 normal) of the same compound?
**A.** 14.44

**Q.** What about the “enzyme activity, Grans” value ([1]; N206 normal) of the same compound?
**A.** 17.96

**Q.** And the “enzyme activity, Grans” value ([1]; P68 tachycardia)?
**A.** 16.08

**Q.** What about the “enzyme activity, Grans” value ([1]; P69 pancreatic CA) of the same compound?
**A.** 16.21

**Q.** What about the “enzyme activity, Grans” value ([1]; P70 cirrhosis/hemobilia) of the same compound?
**A.** 16.42

**Q.** What about the “enzyme activity, Grans” value ([1]; P71 ac. pyelonephritis) of the same compound?
**A.** 11.07

**Q.** And the “enzyme activity, Lymphs” value ([2]; J4 11/21/91 acute leuk.)?
**A.** 2.72

**Q.** And the “enzyme activity, Lymphs” value ([2]; J4 12/2/91 A L)?
**A.** 3.80

**Q.** And the “enzyme activity, Lymphs” value ([2]; J4 12/3/91 acute leuk.)?
**A.** 4.17

**Q.** What about the “enzyme activity, Lymphs” value ([2]; J5 11/27/91 A M L) of the same compound?
**A.** 3.40

**Q.** And the “enzyme activity, Lymphs” value ([2]; J19 11/27/91 C L L)?
**A.** 1.73

**Q.** And the “enzyme activity, Lymphs” value ([2]; J22 12/2/91 A M L)?
**A.** 1.73

**Q.** What about the “enzyme activity, Lymphs” value ([2]; J22 12/9/91 A M L) of the same compound?
**A.** 3.01

**Q.** And the “enzyme activity, Lymphs” value ([2]; N191 normal)?
**A.** 4.14

**Q.** And the “enzyme activity, Lymphs” value ([2]; N192 normal)?
**A.** 3.00

**Q.** What about the “enzyme activity, Lymphs” value ([2]; N193 normal) of the same compound?
**A.** 3.00

**Q.** What about the “enzyme activity, Lymphs” value ([2]; N194 normal) of the same compound?
**A.** 5.22

**Q.** What about the “enzyme activity, Lymphs” value ([2]; N195 normal) of the same compound?
**A.** 5.24

**Q.** What about the “enzyme activity, Lymphs” value ([2]; N197 normal) of the same compound?
**A.** 5.97

**Q.** And the “enzyme activity, Lymphs” value ([2]; N199 normal)?
**A.** 5.55

**Q.** And the “enzyme activity, Lymphs” value ([2]; N200 normal)?
**A.** 5.38

**Q.** And the “enzyme activity, Lymphs” value ([2]; N201 normal)?
**A.** 6.53

**Q.** What about the “enzyme activity, Lymphs” value ([2]; N202 normal) of the same compound?
**A.** 6.61

**Q.** And the “enzyme activity, Lymphs” value ([2]; N206 normal)?
**A.** 7.09

**Q.** What about the “enzyme activity, Lymphs” value ([2]; P68 tachycardia) of the same compound?
**A.** 5.92

**Q.** What about the “enzyme activity, Lymphs” value ([2]; P69 pancreatic CA) of the same compound?
**A.** 6.80

**Q.** And the “enzyme activity, Lymphs” value ([2]; P70 cirrhosis/hemobilia)?
**A.** 6.68

**Q.** And the “enzyme activity, Lymphs” value ([2]; P71 ac. pyelonephritis)?
**A.** 3.55

**Q.** What does the source list for `C[C@H](NC(=O)OCc1ccccc1)C(=O)NCC(=O)Nc1ccc2c(c1)Oc1cc(NC(=O)CNC(=O)[C@H](C)NC(=O)OCc3ccccc3)ccc1C21OC(=O)c2ccccc21` [Z-AG, (Z-Ala--Gly)2 Rho 110]?
**A.** aberrant enzyme activity, LYMPHS ([3]; P99 Viral Syndrome): .smallcircle.; aberrant enzyme activity, LYMPHS ([3]; P102 UTI): .smallcircle.; aberrant enzyme activity, LYMPHS ([3]; P103 Viral Syndrome): .smallcircle.; aberrant enzyme activity, GRANS ([4]; P89 Viral Stomatitis): .smallcircle.; aberrant enzyme activity, GRANS ([4]; P92 Adenitis): .smallcircle.; aberrant enzyme activity, GRANS ([4]; P95 Viral Syndrome): .smallcircle.; aberrant enzyme activity, GRANS ([4]; P96 Viral Syndrome): .smallcircle.; aberrant enzyme activity, GRANS ([4]; P97 Pyelonephritis): .smallcircle.; aberrant enzyme activity, GRANS ([4]; P99 Viral Syndrome): .smallcircle.; aberrant enzyme activity, GRANS ([4]; P102 UTI): .smallcircle.; aberrant enzyme activity, GRANS ([4]; P103 Viral Syndrome): .smallcircle.; aberrant enzyme activity, MONOS ([5]; P89 Viral Stomatitis): .smallcircle.; aberrant enzyme activity, MONOS ([5]; P95 Viral Syndrome): .smallcircle.; aberrant enzyme activity, MONOS ([5]; P96 Viral Syndrome): .smallcircle.; aberrant enzyme activity, MONOS ([5]; P97 Pyelonephritis): .smallcircle.; aberrant enzyme activity, MONOS ([5]; P99 Viral Syndrome): .smallcircle.; aberrant enzyme activity, MONOS ([5]; P102 UTI): .smallcircle.; aberrant enzyme activity, MONOS ([5]; P103 Viral Syndrome): .smallcircle.

**Q.** For `C[C@@H](O)[C@H](NC(=O)OCc1ccccc1)C(=O)N1CCC[C@H]1C(=O)Nc1ccc2c(c1)Oc1cc(NC(=O)[C@@H]3CCCN3C(=O)[C@@H](NC(=O)OCc3ccccc3)[C@@H](C)O)ccc1C21OC(=O)c2ccccc21` [Z-TP6.5, (carbobenzyloxycarbonyl-Thr-Pro)2 Rho 110 (pH 6.5)], which “aberrant enzyme activity, LYMPHS” value ([3]; P88 Enteritis) is on record?
**A.** - (>0.25 Decrease over normal range)

**Q.** What about the “aberrant enzyme activity, LYMPHS” value ([3]; P89 Viral Stomatitis) of the same compound?
**A.** - (>0.25 Decrease over normal range)

**Q.** What about the “aberrant enzyme activity, LYMPHS” value ([3]; P92 Adenitis) of the same compound?
**A.** - (>0.25 Decrease over normal range)

**Q.** What about the “aberrant enzyme activity, LYMPHS” value ([3]; P97 Pyelonephritis) of the same compound?
**A.** .smallcircle.

**Q.** And the “aberrant enzyme activity, LYMPHS” value ([3]; P103 Viral Syndrome)?
**A.** .smallcircle.

**Q.** And the “aberrant enzyme activity, GRANS” value ([4]; P88 Enteritis)?
**A.** - (>0.25 Decrease over normal range)

**Q.** What about the “aberrant enzyme activity, GRANS” value ([4]; P89 Viral Stomatitis) of the same compound?
**A.** - (>0.25 Decrease over normal range)

**Q.** What about the “aberrant enzyme activity, GRANS” value ([4]; P92 Adenitis) of the same compound?
**A.** - (>0.25 Decrease over normal range)

**Q.** What about the “aberrant enzyme activity, GRANS” value ([4]; P103 Viral Syndrome) of the same compound?
**A.** .smallcircle.

**Q.** And the “aberrant enzyme activity, MONOS” value ([5]; P88 Enteritis)?
**A.** - (>0.25 Decrease over normal range)

**Q.** And the “aberrant enzyme activity, MONOS” value ([5]; P89 Viral Stomatitis)?
**A.** - (>0.25 Decrease over normal range)

**Q.** What about the “aberrant enzyme activity, MONOS” value ([5]; P92 Adenitis) of the same compound?
**A.** - (>0.25 Decrease over normal range)

**Q.** What about the “aberrant enzyme activity, MONOS” value ([5]; P97 Pyelonephritis) of the same compound?
**A.** .smallcircle.

**Q.** And the “aberrant enzyme activity, MONOS” value ([5]; P103 Viral Syndrome)?
**A.** .smallcircle.
